# Legend:
# PGRN protein levels = experiment: PGRN quantification (Jess) in GRN R493X/+ 14-day differentiated neurons; format: cell-based, human; details: GRN R493X/+ 14-day growth factor differentiated neurons, 24 h
# Method: PGRN capillary gel electrophoresis experiments were performed using Jess (Bio-Techne) and data were processed and analyzed using Compass for Simple Western software (version 6.0). Runs were conducted using EZ Standard Pack 1 12–230 kDa (Bio-Techne PS-ST01EZ-8), 12–230 kDa pre-filled plates (PS-PP03), 12–230 kDa separation module (SMW004), anti-rabbit HRP detection (DM-001), RePlex (RP-001), and total protein detection modules (DM-TP01, biotin labeling reagent 042-973) according to the manufacturer’s instructions, and with anti-PGRN primary (Abcam ab208777) diluted 1:50 in milk-free antibody dilution buffer (043–524). The following run settings were used for each experiment: separation time: 25 min, separation voltage: 375 V, RePlex purge time: 30 min, biotin labeling time: 30 min, antibody diluent time: 5 min, primary antibody time: 30 min, secondary antibody time: 30 min, total protein HRP time: 30 min. All intensity quantifications are normalized to the total protein assay quantification unless otherwise indicated.
# For GRN^R493^X/+ NPCs, cells were grown to confluency in 6-well plates according to the above NPC culturing procedure. To each well was directly added 2 µL of 100 µM panobinostat, […], or DMSO only to produce final in-well concentrations of 100 nM or 1 µM, respectively (0.1% DMSO final concentration). […]
# PGRN-Luc = experiment: HMC3 PGRN-luciferase reporter assay; format: cell-based, human; details: HMC3 PGRN-Luc cells, 8 h of treatment
# Method: HMC3 PGRN-Luc cells were trypsinized from confluent T-75 flasks and re-suspended in HMC-3 media at 150,000–200,000 cells/mL. 30 µL of cell suspension was then seeded onto each well of black, 384-well clear-bottom plates (Corning 3712) using the Multidrop Combi (Thermo Fisher). Cells were allowed to adhere to plates in the incubator at 37 °C/5% CO2 for 6–8 h. After 6–8 h, compounds were added to each well using the D300e (Tecan) compound dispenser, and all wells were DMSO-normalized (0.3%). Cells were allowed to incubate with compounds for indicated timeframes.
# Plates were removed from the incubator and allowed to cool to RT. 15 µL of media was removed from each well using a multichannel pipette and added to separate Corning 3712 plates for a read of “secreted” PGRN. To both the media-containing plates as well as the cell-containing plates (with 15 µL media remaining) is then added 15 µL of active luminescence reagent (Thermo 18,636) which was generated according to manufacturer’s instructions. Plates were allowed to nutate at RT for 15 min prior to reading using the EnVision (PerkinElmer). For calculation of the internal PGRN-Luc signal, the secreted signal (15 µL media) was subtracted from the signal of the cell-containing plates (with 15 µL media remaining). For “total” PGRN-Luc signal, a sample of media was not aliquoted into a separate plate, and instead, 30 µL of active luminescence reagent was added directly to each well.
# For the mivebresib and panobinostat time-course experiment, the above procedure was followed, with the exception that cells were seeded at 66,600 cells/mL in 30 µL media, and allowed to grow overnight prior to compound addition for the indicated timeframes.
# BRD4 protein levels = experiment: Immunoblotting of BRD4 in human NPCs; format: cell-based; details: co-treatment with MLN-4924 (1 µM) and mivebresib (1 µM)
# Method: Gels were then transferred onto PVDF membranes (Immobilon-P, Millipore IPVH00010). […] Membranes were washed with TBST for 1 h, and developed with the chemiluminescence reagents used above.
# NPCs were cultured normally in 6-well plates as described previously. […] Plates returned to the incubator. […] Plates returned to the incubator. After 4 h, to the indicated wells is directly added 1 µL 2 mM mivebresib (MedChem Express HY-100015) in DMSO for a final concentration of 1 µM, or 1 µL DMSO. All plates were returned to the incubator overnight. […] 200 µL of supernatant was then transferred to a fresh, labeled Eppendorf rube, which was then stored at − 20 °C prior to further analysis. Sample concentration was quantified using the BCA assay as described above, and normalized to 250 µg/mL in M-PER lysis buffer prior to PGRN quantification using the Jess.
smiles,measurement,setting,value
CCS(=O)(=O)Nc1ccc(Oc2ccc(F)cc2F)c(-c2cn(C)c(=O)c3[nH]ccc23)c1 [mivebresib],PGRN protein levels,PGRN protein levels,significantly increased PGRN protein levels
same,total (combined internal and secreted) PGRN-Luc signal,PGRN-Luc,to the same extent as did panobinostat
same,enhancement of BRD4 protein levels,BRD4 protein levels,~ fourfold
